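Growth conditions: 96-well plates. Treatment: test compound, 48 hours, 5 concentrations. Analysis: linear interpolation between bracketing concentrations; unreached endpoints set to highest concentration. The concentration for 50% growth inhibition is given as GI50. TGI is the concentration that stops growth completely.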
Experiments:
Test in all cases: NCI-60 cell line screen, 48 h
IGROV1 ovarian = tested on: IGROV1 ovarian
SW-620 colon = tested on: SW-620 colon
RXF 393 renal = tested on: RXF 393 renal
M14 melanoma = tested on: M14 melanoma
NCI-H226 lung = tested on: NCI-H226 lung
SK-MEL-2 melanoma = tested on: SK-MEL-2 melanoma
SF-268 CNS = tested on: SF-268 CNS
SK-MEL-5 melanoma = tested on: SK-MEL-5 melanoma
NCI-H460 lung = tested on: NCI-H460 lung
HOP-62 NSCLC = tested on: HOP-62 NSCLC
RPMI-8226 leukemia = tested on: RPMI-8226 leukemia
KM12 colon = tested on: KM12 colon
EKVX NSCLC = tested on: EKVX NSCLC
HL-60(TB) leukemia = tested on: HL-60(TB) leukemia
SN12C renal = tested on: SN12C renal
MCF7 breast = tested on: MCF7 breast
SNB-75 CNS = tested on: SNB-75 CNS
U251 CNS = tested on: U251 CNS
UACC-257 melanoma = tested on: UACC-257 melanoma
SNB-19 CNS = tested on: SNB-19 CNS
HS 578T breast = tested on: HS 578T breast
CAKI-1 renal = tested on: CAKI-1 renal
DU-145 prostate = tested on: DU-145 prostate
SK-OV-3 ovarian = tested on: SK-OV-3 ovarian
HCC-2998 colon = tested on: HCC-2998 colon
OVCAR-3 ovarian = tested on: OVCAR-3 ovarian
NCI/ADR-RES ovarian = tested on: NCI/ADR-RES ovarian
MOLT-4 leukemia = tested on: MOLT-4 leukemia
LOX IMVI melanoma = tested on: LOX IMVI melanoma
NCI-H23 lung = tested on: NCI-H23 lung

Compound `C#CCN(C)CCCOc1ccc(N(C)C(=O)c2cc(C(C)C)c(O)cc2O)cc1Cl` has a TGI (IGROV1 ovarian) of 14.7 µM, a GI50 (SW-620 colon) of 0.102 µM and a TGI (SW-620 colon) of 13.9 µM. For the same compound, the GI50 (RXF 393 renal) was 0.685 µM, the TGI (RXF 393 renal) was 13.8 µM and the GI50 (M14 melanoma) was 0.406 µM. The TGI (M14 melanoma) was 13.8 µM, the GI50 (NCI-H226 lung) was 0.557 µM and the TGI (NCI-H226 lung) was 19.8 µM. It also gave a GI50 (SK-MEL-2 melanoma) of 1.72 µM, a TGI (SK-MEL-2 melanoma) of 18.6 µM and a GI50 (SF-268 CNS) of 1.32 µM. It also gave a TGI (SF-268 CNS) of 25.9 µM, a GI50 (SK-MEL-5 melanoma) of 0.357 µM and a TGI (SK-MEL-5 melanoma) of 2.02 µM. For the same compound, the GI50 (NCI-H460 lung) was 0.0679 µM, the TGI (NCI-H460 lung) was 10.9 µM and the GI50 (HOP-62 NSCLC) was 0.249 µM. It also gave a TGI (HOP-62 NSCLC) of 19.6 µM, a GI50 (RPMI-8226 leukemia) of 0.266 µM and a TGI (RPMI-8226 leukemia) of 20.5 µM. For the same compound, the GI50 (KM12 colon) was 0.105 µM, the TGI (KM12 colon) was 10.9 µM and the GI50 (EKVX NSCLC) was 0.526 µM. For the same compound, the TGI (EKVX NSCLC) was 12.7 µM, the GI50 (HL-60(TB) leukemia) was 0.0533 µM and the TGI (HL-60(TB) leukemia) was 9.1 µM. It also gave a GI50 (SN12C renal) of 0.0925 µM, a TGI (SN12C renal) of 14.2 µM and a GI50 (MCF7 breast) of 0.0522 µM. The TGI (MCF7 breast) was 15.4 µM, the GI50 (SNB-75 CNS) was 0.977 µM and the TGI (SNB-75 CNS) was 17.8 µM. It also gave a GI50 (U251 CNS) of 0.283 µM, a TGI (U251 CNS) of 16 µM and a GI50 (UACC-257 melanoma) of 0.521 µM. It also gave a TGI (UACC-257 melanoma) of 13.8 µM, a GI50 (SNB-19 CNS) of 0.435 µM and a TGI (SNB-19 CNS) of 15.4 µM. The GI50 (HS 578T breast) was 1.33 µM, the TGI (HS 578T breast) was 27.1 µM and the GI50 (CAKI-1 renal) was 0.325 µM. The TGI (CAKI-1 renal) was 14.9 µM, the GI50 (DU-145 prostate) was 0.0592 µM and the TGI (DU-145 prostate) was 18.2 µM. It also gave a GI50 (SK-OV-3 ovarian) of 0.0534 µM, a TGI (SK-OV-3 ovarian) of 12.9 µM and a GI50 (HCC-2998 colon) of 0.224 µM. For the same compound, the TGI (HCC-2998 colon) was 2.04 µM, the GI50 (OVCAR-3 ovarian) was 0.509 µM and the TGI (OVCAR-3 ovarian) was 16.8 µM. For the same compound, the GI50 (NCI/ADR-RES ovarian) was 0.305 µM, the TGI (NCI/ADR-RES ovarian) was 8.93 µM and the GI50 (MOLT-4 leukemia) was 0.101 µM. For the same compound, the TGI (MOLT-4 leukemia) was 12.5 µM, the GI50 (LOX IMVI melanoma) was 0.129 µM and the TGI (LOX IMVI melanoma) was 0.303 µM. The GI50 (NCI-H23 lung) was 0.298 µM and the TGI (NCI-H23 lung) was 15 µM.
